Results taken from patent publication US6165986A (Taisho Pharmaceutical Co., Ltd., priority 1997, dated 2000).
≈ marks a conversion by molar mass, not a printed value.

Experiments:
Format in all cases: cell-based
S. aureus 209P-JC = assay: In vitro antibacterial activity (MIC), S. aureus 209P-JC; conditions: Staphylococcus aureus, sensitive disc media, Japan Society of Chemotherapy method, read-out: MIC value (Minimum Inhibitory Concentration)
Protocol: (§1) The in vitro antibacterial activity of the compound obtained in Example 2 as an example of the compound of the present invention against various experimental bacteria was measured using sensitive disc media (produced by Eiken Chemical Co.) according to the MIC measuring method specified by the Japan Society of Chemotherapy. Clarithromycin was used as a comparative drug.

E. faecalis CSJ 1212 = assay: In vitro antibacterial activity (MIC), E. faecalis CSJ 1212; conditions: Enterococcus faecalis, CSJ1212, sensitive disc media, Japan Society of Chemotherapy method, read-out: MIC value (Minimum Inhibitory Concentration)
Protocol: as §1

S. epidermidis IID 866 = assay: In vitro antibacterial activity (MIC), S. epidermidis IID 866; conditions: Staphylococcus epidermidis, IID866, sensitive disc media, Japan Society of Chemotherapy method, read-out: MIC value (Minimum Inhibitory Concentration)
Protocol: as §1

S. pneumoniae BM 211 = assay: In vitro antibacterial activity (MIC), S. pneumoniae BM 211; conditions: Streptococcus pneumoniae, BM211, sensitive disc media, Japan Society of Chemotherapy method, read-out: MIC value (Minimum Inhibitory Concentration)
Protocol: as §1

S. pneumoniae BM 225 = assay: In vitro antibacterial activity (MIC), S. pneumoniae BM 225; conditions: Streptococcus pneumoniae, BM225, sensitive disc media, Japan Society of Chemotherapy method, read-out: MIC value (Minimum Inhibitory Concentration)
Protocol: as §1

S. aureus Smith = assay: In vitro antibacterial activity (MIC), S. aureus Smith; conditions: Staphylococcus aureus, sensitive disc media, Japan Society of Chemotherapy method, read-out: MIC value (Minimum Inhibitory Concentration)
Protocol: as §1

[1] = tested on: erythromycin-resistant bacteria; assay: Antibacterial activity against erythromycin-resistant bacteria
Protocol: as §1

[2] = tested on: erythromycin-sensitive bacteria; assay: Antibacterial activity against erythromycin-sensitive bacteria
Protocol: as §1

Haemophilus influenzae = assay: Antibacterial activity against Haemophilus influenzae
Protocol: as §1

Row | Compound | MIC (S. aureus 209P-JC) [µg/mL] | MIC (E. faecalis CSJ 1212) [µg/mL] | MIC (S. epidermidis IID 866) [µg/mL] | MIC (S. pneumoniae BM 211) [µg/mL] | MIC (S. pneumoniae BM 225) [µg/mL] | MIC (S. aureus Smith) [µg/mL] | antibacterial activity (in words) [1] | antibacterial activity (in words) [2] | antibacterial activity (in words) (Haemophilus influenzae)
1 | CC[C@H]1OC(=O)[C@H](C)[C@@H](O[C@H]2C[C@@](C)(OC)[C@@H](O)[C@H](C)O2)[C@H](C)[C@@H](O[C@@H]2O[C@H](C)C[C@H](N(C)C)[C@H]2O)[C@](C)(OC)C[C@@H](C)C(=O)[C@H](C)[C@@H](O)[C@]1(C)O [Comparative drug, Clarithromycin, reference compound] | 0.1 (≈ 0.134 µM) | 0.2 (≈ 0.267 µM) | 0.2 (≈ 0.267 µM) | > 100 | 50 (≈ 66.8 µM) | 0.2 (≈ 0.267 µM) | – | – | –
2 | CC[C@H]1OC(=O)[C@H](C)C(=O)[C@H](C)[C@@H](O[C@@H]2O[C@H](C)C[C@H](N(C)C)[C@H]2O)[C@](C)(OC)C[C@@H](C)C(=O)[C@H](C)[C@H]2N(CCN(C)Cc3cccnc3)C(=O)O[C@]12C [Example 2, 11-[2-[N-methyl-N-(3-pyridylmethyl)amino]ethyl]amino-3,11-dideoxy-3-oxo-5-O-desosaminyl-6-O-methylerythronolide A 11,12-cyclic carbamate] | 0.05 (≈ 0.0657 µM) | 0.05 (≈ 0.0657 µM) | 0.1 (≈ 0.131 µM) | 50 (≈ 65.7 µM) | 0.39 (≈ 0.513 µM) | 0.1 (≈ 0.131 µM) | strong antibacterial activity | strong antibacterial activity | strong antibacterial activity
